Experimental data: US20220184222A1, “BICYCLE TOXIN CONJUGATES AND USES THEREOF” (BicycleTx Limited, priority 2019, published 2022)
Starred links: 1 amine or outer side, 2 acyl side, 3 side chain; linkers in the order of their positions; H or OH if unused. Non-standard residues stand in square brackets, D forms with d. Residues, ends and D or L forms follow the SMILES beside them. *: point of attachment. Dolaproine = CO[C@@H]([C@@H]1CCCN1)[C@@H](C)C(=O)O; Dil = CC[C@H](C)[C@H](NC)[C@@H](CC(=O)O)OC; PABC = O=C(OCc1ccc(N[*:1])cc1)[*:2]; X1 = O=C(CCCC(=O)*)ON1C(=O)CCC1=O; X2 = C[C@@H](N*)[C@@H](O)c1ccccc1; Cit = NC(=O)NCCC[C@H](N)C(=O)O; NMeV = CN[C@H](C(=O)O)C(C)C

Test system: PC-3M-luc-C6 human prostate carcinoma
Assay: Intracardially implanted PC-3M-Luc-C6 metastatic model, BLI and survival (Example 6)
Format: in vivo, Mouse
Conditions: for Day 26 T/C: BLI total bone signal; for tumor growth delay: evaluation size 9.0E+07 p/s
Method: The purpose of this study was to evaluate the efficacy and overall impact of Bicycle toxin conjugate BT5528 against established intracardially implanted PC-3M-luc-C6 human prostate carcinoma in male nude mice, with treatment regimens starting at different disease stages (Day 14 and Day 21). Response was monitored using bioluminescence imaging (BLI) on Days 14, 21, 28, 35, and 42 coupled with traditional survival endpoints.
BT5528: • Formulation pH: 5.4 • High Dose Formulation: 0.15 mg/mL • Vehicle: 50 mM Acetate, 10% Sucrose • Storage: 4° C. • Dose volume: 0.01 mL/g
All procedures carried out in this experiment were conducted in compliance with the applicable laws, regulations and guidelines of the National Institutes of Health (NIH). • Species: Mouse • Strain: Envigo nude mice (Hsd:Athymic Nude-Foxn1^nu) • Age at implant: 5-6 weeks • Sex: male • Min weight (D14): 24.9 g • Mean weight (D14): 28.4 g (range of group means, 27.7-28.8 g)
Animals were anesthetized with an IP injection of a ketamine (100 mg/kg)/xylazine (6 mg/kg) cocktail. When the animals were non-responsive (determined by a toe pinch test), 100 μl of cell suspension (3.0 E+06 cells) were drawn into a 1 ml syringe and a 27×½″ gauge needle was then attached. A small air bubble is created in the plunger side of the syringe before injection. The needle was then inserted slowly through the center of the second intercostal space, approximately 3 mm to the left of the sternum and aimed centrally until a continuous pulsation of bright red oxygenated blood into the needle hub was observed. 100 μl of cell suspension was then slowly injected over 5 seconds. A fresh needle and syringe were used for each animal.
Animals were injected with firefly D-luciferin (150 mg/kg) by IP administration according to body weight (0.2 ml/20 g). The success of the intracardiac injections was verified by a one minute bioluminescence scan using large binning (high sensitivity) of the CCD chip immediately after the injection. Mice with signals from the entire body, from snout to base of the tail, were deemed to have been successfully injected, while mice with signals localized to the chest area only, or not fully extending into the snout, were triaged from the study immediately.
All mice were sorted into study groups based on body weight and BLI-derived estimation of tumor burden.
BLI was performed using an IVIS S5 Lumina system (PerkinElmer, Waltham, Mass.). Animals were imaged five at a time under 1-2% isoflurane gas anesthesia. Each mouse was injected IP with 150 mg/kg (15 mg/ml) D-luciferin and imaged in the prone then supine positions 10 minutes after the injection. Large binning of the CCD chip was used, and the exposure time was adjusted (10 seconds to 2 minutes) to obtain at least several hundred counts per image and to avoid saturation of the CCD chip. BLI images were collected on Days 0, 7, 14, 21, 28, 35, 42, 49, 56 and 63 post-implant.
Images were analyzed using Living Image 4.7.1 (PerkinElmer, MA) software. Each unique tissue signal was circled manually and labeled based on anatomical site as mandible or hind limb for both prone and supine images. For limbs, the signal was also designated as being from the right or left side of the mouse.
Signal flux (photons/sec) were calculated for each unique metastatic signal and exported for all ROIs to facilitate analyses between groups.
Study was terminated on Day 78. All BLI endpoint calculations were derived from total bone values. The BLI background signal for this study was measured at 1.20 E+05 p/s. An animal was credited with a partial regression if the BLI signal fell below half the staging BLI signal level. Similarly, a complete regression (CR) was credited if the BLI signal fell below the background level, and a tumor-free survivor was if the BLI signal was below background on last day of imaging (Day 63), with no evidence of disease at necropsy. […]

[1] = 1.5 mg/kg IV Q7D × 4 starting Day 14
[2] = 1.5 mg/kg IV Q7D × 4 starting Day 21

CC[C@H](C)[C@@H]([C@@H](CC(=O)N1CCC[C@H]1[C@H](OC)[C@@H](C)C(=O)N[C@H](C)[C@@H](O)c1ccccc1)OC)N(C)C(=O)[C@@H](NC(=O)[C@H](C(C)C)N(C)C(=O)OCc1ccc(NC(=O)[C@H](CCCNC(N)=O)NC(=O)[C@@H](NC(=O)CCCC(=O)ON2C(=O)CCC2=O)C(C)C)cc1)C(C)C [BT5528] (X1-V[Cit][PABC][NMeV]V[Dil][Dolaproine]-X2)
incidence of partial regressions [1]: 60%
increased lifespan (ILS) [1]: 177.3%
Day 26 T/C [1]: 1%
tumor growth delay [1]: > 35.1 days
increased lifespan (ILS) [2]: 145.5%
less incidence of partial regressions than with Day 14 start [2]: 40%
Day 26 T/C [2]: 3.4%
tumor growth delay [2]: > 35.1 days
bone tumor cell burden and survival (4 weekly treatment cycles): reduced the bone tumor cell burden significantly and extended the survival of the mice
mice at the end of the study (D78) without observable (macroscopic) disease (mouse, in vivo): 1 mouse
